Laboratory results: publication PMC3857039, “First Quantitative Imaging of Organic Fluorine within Angiogenic Tissues by Particle Induced Gamma-Ray Emission (PIGE) Analysis: First PIGE Organic Fluorine Imaging” (Pharmaceutics, 2011)
Where a SMILES comes first, the peptide text is derived from it. [ ]: non-standard residue; d: D form. The star is where a group is joined. X1 = FC(F)(F)C(F)(F)C(F)(F)C(F)(F)C(F)(F)C(F)(F)CCCOCCOCCOCCN*

Columns and labels:
[1] = tested on: U87 human glioma cells tumor xenografted on the CAM; test: PIGE/RBS quantification of fluorine in sections of U87 glioma tumor implanted on the CAM after intravascular injection of fluorinated tracer; type: in vivo, chicken; conditions: Sample 2, section S1 (tumor section); FDG 0.77 M in PBS, 100 μL per embryo, sacrifice 6 h after injection; PIGE; per g dry mass
[2] = tested on: U87 human glioma cells tumor xenografted on the CAM; test: as above; type: in vivo, chicken; conditions: for Average fluorine concentration, pathological tissue, Tumor: FDG 1.53 M; for Average fluorine concentration, pathological tissue, Tumor / Average fluorine concentration, pathological tissue, tumor section (surrounding tissue) / Average fluorine concentration, pathological tissue, capillaries of tumor section: sacrifice 6 h after injection, PIGE, per g dry mass
Description: (§1) In preparation for the intravascular injection, 274 mg of FDG is dissolved in 1 mL sterile PBS. For the polyfluorinated glucose solution, 10 mg of the probe was added to 1 mL of polypropylene glycol (MW = 400 g/mol). F13-CBO-P11 solutions were prepared in sterile PBS. For the latter, solutions were obtained by the addition of 20 mg and 35 mg of peptide in 1 mL sterile PBS.
U87 human glioma cells (ATCC) were selected for the study as an established model for malignant gliomas that form highly vascularized tumors. Cells were maintained in culture using Dulbecco's modified Eagle's medium (DMEM) with 10% FBS, L-glutamine (2 mmol L^−1), and antibiotics (penicillin 50 UI mL^−1, streptomycin 50 μg mL^−1). Cell culture was performed in a 37 °C incubator with humidified atmosphere and 5% CO2. Cells were grown to confluence, harvested after trypsinization, and re-suspended in serum-free DMEM for implantation.
(§2) Fertilized chicken eggs were incubated at 37 °C in a humidified atmosphere. On day 4 of incubation, a window was made in the shell in order to visualize the chorio allantoïc membrane (CAM). On embryonic day 10, in the tumor group, a ring was put on the CAM and U87 glioma cells (5 million cells per egg suspended in 20 μL of medium) were deposited on the CAM within the ring after gentle laceration of the surface. In the other group, a nylon grid was put on the CAM to allow normal tissue to grow on the grid. After 7 days of implantation (embryonic day 17), FDG, polyfluorinated glucose and F13-CBO-P11 solutions were then injected in a blood vessel of the CAM of each egg (100 μL per embryo). Embryos were sacrificed 6 hours after injection. All samples were removed and snap-frozen in liquid nitrogen-chilled isopentane at −160 °C. CAM samples and normal tissue (S1, Scheme 1) coming from nylon grid were then put on targets (2 mm-thick and 20 mm-diameter aluminium target with a 5 mm-hole in the centre) and freeze-dried during 3 days at−30 °C in a cryostat (CM3050S, Leica Microsystems). Tumors were conserved at −80 °C until sectioning. For tumor tissue, successive serial sections (at 100, 200 and 300 μm) were obtained from the CAM to the tumor (S2 to S4, Scheme 1) using the cryostat, put on targets and freeze-dried. After sample preparation, microphotographs were taken to monitor the experiment.
(§3) Particle Induced γ-ray Emission (PIGE) and Rutherford Backscattering Spectrometry (RBS) were performed simultaneously to determine trace elements quantitative distribution, such as F and Fe, and major element as C, N, and O determination, respectively (Figure1). Analyses were performed with proton beam energy at 3.4 MeV in order to benefit from a high cross section for the nuclear reaction for fluorine. Analyses were realized on zones of typically 850 × 850 μm in a scanning mode of the proton beam. The beam was focused onto the sample surface to a spot of 5 μm in diameter, resulting in a proton beam current of 500 pA as measured with a Faraday cup below the sample. Characteristics gamma rays emitted from elements of the target were detected with an ultralow energy planar germanium detector (surface of the Ge crystal is 100 mm², thickness 10 mm) placed at 45° from incident beam. The γ-ray detector was covered by a 100 μm thick carbon filter (hole 0.2% of the total filter surface), to protect the γ-ray detector from backscattered particles. The RBS measurements were performed using a PIPS detector (passivated implanted planar silicon) placed at 135° from the incident beam direction.
(§4) CaF2 micromatter standard (certified material from NIST) and a PVDF film (polyvinylidene difluoride, 25 μm thick) were used as external standard in order to verify the quantification process. γ-ray emission data were analyzed with the Supavisio software to create mask of interesting areas of selected chemical elements. RBS data were analyzed with SIMNRA code.
The quantification of fluorine was performed by comparative analysis with reference standard. […]

[3] = tested on: chicken chorioallantoic membrane (CAM); test: PIGE/RBS quantification of fluorine in normal CAM tissue and capillaries after intravascular injection of fluorinated tracer; type: in vivo; conditions: for Average fluorine concentration, physiological tissue, Capillaries / Average fluorine concentration, physiological tissue, CAM (surrounding tissue): 100 μL per embryo, sacrifice 6 h after injection, PIGE
Description: as §1, §2, §3, §4
The quantification of fluorine was performed by comparative analysis with reference standard. PVDF films were analyzed in order to simulate the composition and thickness of biological samples. PyMCA software was used to fit the 110 keV γ peak on PIGE spectra on a PVDF film and biological samples. The intensity of the peak in the PVDF was used to normalize yield in samples [14, 16].
The combination of PIGE and RBS quantitative data were used for mass normalization of y-ray emission, leading to element concentrations expressed in terms of μg of element per g of dry mass sample. […]

[4] = Sample 3, section S1 (CAM sample, no tumor), FDG 1.53 M in PBS, per g dry mass
[5] = Sample 6, serial tumor section S2, 20 mM in PBS, 100 μL per embryo
[6] = Sample 7, serial tumor section S2, 35 mM in PBS, 100 μL per embryo
[7] = Sample 8, section S1 (CAM sample, no tumor), 35 mM in PBS, per g dry mass

O=C[C@H]([18F])[C@@H](O)[C@H](O)[C@H](O)CO [FDG, 2-deoxy-2-[18F]fluoro-D-glucose]
Average fluorine concentration, pathological tissue, Tumor [1]: 1570±180 μg/g
Average fluorine concentration, pathological tissue, Tumor ([2]; Sample 3, serial tumor section S2, 100 μL per embryo): 1640±170 μg/g
Average fluorine concentration, pathological tissue, Tumor ([2]; Sample 3, serial tumor section S3, 100 μL per embryo): 1950±240 μg/g
Average fluorine concentration, pathological tissue, Tumor ([2]; Sample 3, serial tumor section S4, 100 μL per embryo): 1470±140 μg/g
Ratio of fluorine concentrations between capillaries and tissues ([3]; FDG 0.77 and 1.53 M): close to one
Average fluorine concentration within capillaries as well as in surrounding tissues (homogeneous distribution) ([3]; FDG 0.77 and 1.53 M, overall average of Table 1): about 1600 μg/g
Average fluorine concentration, physiological tissue, CAM ([3]; Sample 1, section S1 (CAM sample, no tumor), FDG 1.53 M in PBS, 100 μL per embryo into CAM blood vessel, embryonic day 17, sacrifice 6 h after injection, freeze-dried, PIGE 3.4 MeV, per g dry mass): 1560±180 μg/g
Average fluorine concentration, physiological tissue, Capillaries ([3]; Sample 1, section S1 (CAM sample, no tumor), FDG 1.53 M in PBS, per g dry mass): 960±100 μg/g
Average fluorine concentration, physiological tissue, CAM (surrounding tissue) [3, 4]: 1820±210 μg/g
Average fluorine concentration, physiological tissue, Capillaries [3, 4]: 1460±170 μg/g

CC[C@H](C)[C@@H]1NC(=O)[C@H](Cc2c[nH]cn2)NC(=O)[C@H](CCC(N)=O)NC(=O)CNC(=O)[C@H](CCC(N)=O)NC(=O)[C@H](Cc2c[nH]cn2)NC(=O)[C@@H]2CCCN2C(=O)[C@H](CCCCN)NC(=O)[C@H]([C@@H](C)CC)NC(=O)[C@H](CCCNC(=N)N)NC(=O)[C@H](CCSC)NC(=O)[C@H]([C@@H](C)CC)NC(=O)[C@H](CCC(N)=O)NC(=O)[C@@H]2CCCN2C(=O)[C@@H](Cc2ccccc2)NC(=O)[C@H](CCC(=O)NCCOCCOCCOCCCC(F)(F)C(F)(F)C(F)(F)C(F)(F)C(F)(F)C(F)(F)F)NC(=O)CNC1=O [Compound F13-CBO-P11] (cyclo(E(X1)[dF]PQIMRIKPHQGQHIG))
Average fluorine concentration, pathological tissue, tumor section (surrounding tissue) ([2]; Sample 6, serial tumor section S1, 20 mM in PBS, 100 μL per embryo (0.49 mg fluorine)): 450±35 μg/g
Average fluorine concentration, pathological tissue, capillaries of tumor section ([2]; Sample 6, serial tumor section S1, 20 mM in PBS, 100 μL per embryo): 610±70 μg/g
Average fluorine concentration, pathological tissue, capillaries of tumor section [2, 5]: 360±50 μg/g
Average fluorine concentration, pathological tissue, tumor section (surrounding tissue) [2, 5]: 270±20 μg/g
Average fluorine concentration, pathological tissue, tumor section (surrounding tissue) ([2]; Sample 7, serial tumor section S1, 35 mM in PBS, 100 μL per embryo (0.85 mg fluorine)): 345±30 μg/g
Average fluorine concentration, pathological tissue, capillaries of tumor section ([2]; Sample 7, serial tumor section S1, 35 mM in PBS, 100 μL per embryo): 650±70 μg/g
Average fluorine concentration, pathological tissue, capillaries of tumor section [2, 6]: 460±45 μg/g
Average fluorine concentration, pathological tissue, tumor section (surrounding tissue) [2, 6]: 215±35 μg/g
Dose dependence of fluorine uptake ([2]; sample 6 (20 mM) versus sample 7 (35 mM)): not dose dependant
Fold higher fluorine concentration in capillaries than in surrounding tissue, tumor sections ([2]; samples 6 and 7, 20 and 35 mM): 1.5 times
Average fluorine concentration, physiological tissue, CAM (surrounding tissue) [3, 7]: 2050±175 μg/g
Average fluorine concentration, physiological tissue, Capillaries [3, 7]: 6570±555 μg/g
Fold higher fluorine concentration in capillaries than in surrounding tissue, normal tissue ([3]; sample 8, 35 mM): 3 times
